Experimental findings from US20100278875A1, “PROSTAGLANDIN E2 (PGE2) AS AN ADJUVANT IN MONOCLONAL ANTIBODY GENERATION” (priority 2006, published 2010) are described below.

In assay [1] the test system is ovalbumin (OVA). Put plainly: Anti-OVA antibody titers in Balb/c mice immunized with OVA in the presence or absence of PGE2. Type of assay: in vivo. As to the method:
(§1) To generate antibody against ovalbumin (OVA), Balb/c mice were immunized with 25 ug of OVA emulsified in adjuvant. To test the effect of PGE2, the mice were injected with 1 nmol PGE2 intraperitoneally (i.p.) 3 hours prior to immunization, and again at 24 and 48 hours post immunization. For the control group, the mice were injected (i.p.) with an equal volume of PBS 3 hours prior to immunization. The mice were boosted with 25 ug OVA on Day 14 (i.p.) and Day 28 (subcutaneously). Anti-OVA titers were determined on Day 27 and Day 35.
(§2) To assess the effect of PGE2 on generating antibodies against difficult targets, a nominal immunogen (AgX) known to be difficult to raise an antibody response was used. Briefly, Balb/c mice were immunized following the same schedule outlined above with either 25 ug of OVA or AgX and titered on Day 27 following 2 i.p. injections. […] Therefore, PGE2 enhances immune responses in Balb/c mice and may be used to shorten immunization time lines.

Assay [2] has as its system nominal immunogen (AgX). Briefly: Antibody titers in Balb/c mice against a nominal immunogen (AgX) in the presence or absence of PGE2. The following applies: following 2 injections, versus PBS. Type of assay: in vivo. As to the method: as §1, §2
Given the difficult nature of this immunogen to generate antibodies against, this is a significant increase. Therefore, PGE2 can be used in Balb/c mice to enhance immune responses not only to strong immunogens, but also to difficult/nominal immunogens.

As for `CCCCC[C@H](O)/C=C/[C@H]1[C@H](O)CC(=O)[C@@H]1C/C=C\CCCC(=O)O` [PGE2, Prostaglandin E2], the “effect on anti-OVA titers (in words)” value is “significantly enhanced anti-OVA titers” in assay [1] (Table 1 experiment, Day 27 and Day 35); “enhanced anti-OVA titers” in assay [1] (Table 2 experiment, following only 2 immunogen injections). The “increase of anti-AgX titers” value in assay [2] is 2-3 fold.
